Measurements reported in patent publication US10745402B2, “Morphinan derivatives and use thereof” (PURDUE PHARMA L.P., priority 2017, dated 2020).

Assays:
[1] = target: T1, μ-opioid receptor (Homo sapiens, UniProt P35372); assay: β-Arr2 activity response in U2OS cells, μ-opioid receptor; format: cell-based
Experimental: (§1) TABLE 4 provides activity response of certain Compounds of the present disclosure to the μ- and κ-opioid receptors that was determined in the above-described functional assays using U2OS cells.

[2] = tested on: Sprague-Dawley rats; assay: Hot plate analgesia in rats (observation of sedation); format: in vivo, rat
Experimental: To assess the actions of a Compound of the present disclosure for the treatment or prevention of acute pain, the rat hot plate test can also be used. Rats are tested using a hot plate apparatus consisting of a clear plexiglass cylinder with a heated metal floor maintained at a temperature of 48-52° C. (Model 7280, commercially available from Ugo Basile of Italy). […] Hot plate latencies are measured immediately before (pre-treatment) and 1, 3, and 5 hours following administration of a Compound of the present disclosure. The nocifensive behavioral endpoint is defined as any of the following: 1) paw withdrawal, either as a sustained lift or with shaking or licking; 2) alternating foot lifting; 3) escape or attempted escape from the testing device; or 4) vocalization. Data are expressed as response latency(s) and the percentage of the maximal possible effect is calculated as described above for the tail flick test. […]
Male, Sprague-Dawley rats (Harlan, weight 211-246 g; n=5-10/group) were baselined (“BL”) for latency on a hot plate which was set to 52° C. the day prior to dosing. […] The next day, vehicle (0.5% MC) po, Compound 1 po; or morphine sc, the positive control, were administered and thermal latency was assessed 1, 3, and 5 hours after dosing.
Data were analyzed by a two-way ANOVA using a Bonferroni Multiple Comparisons test, where *P<0.05 and ****P<0.0001 vs vehicle. […]

[3] = tested on: Sprague-Dawley rats; assay: Conditioned Place Preference (CPP) in rats; format: in vivo, rat; settings: po in 0.5% MC, day 8, one-way ANOVA
Excerpt: Conditioned Place Preference (CPP) test is a test typically used to measure drug liking.
Male, Sprague-Dawley rats (Harlan, weight 213-240 g) at the beginning of the dosing paradigm were baselined (“BL”) for initial preference (pretest; day 1) using automated conditioning chambers (MedAssociates, Fairfax, Vt.); n=10/group. An unbiased counterbalanced design was used in which rats were randomly assigned to each group with respect to compartment pairings based on weight.
Compound 1 was formulated in 0.5% MC and administered po., while oxycodone, the positive control was dissolved in saline and administered sc.
During the first conditioning session, half of the rats were confined to the black compartment paired with either vehicle (0.5% MC) po, oxycodone sc, or Compound 1 po administration, while the other half were placed in white compartment with similar pairings.
Rats were conditioned on alternate days for 6 total sessions (3 vehicle/3 oxycodone or Compound 1). Control rats received vehicle at each conditioning session. […]
Conditioned Place Preference (CPP) was determined on day 8, and is represented as the difference between the time (seconds) the rat spent in the drug-paired and vehicle-paired compartments. Data are represented as the means±S.E.M., and were analyzed by a one-way ANOVA where *P<0.05 vs vehicle.

[4] = target: T1, μ-opioid receptor; assay: [35S]GTPγS functional assay, μ-opioid receptor (HEK-293 or CHO cells); format: biochemical; set-up: made in house; host or cells: HEK-293 or CHO
Experimental: [^35S]GTPγS functional assays were conducted using freshly thawed μ-receptor membranes prepared in-house from a cell line expressing recombinant μ opioid receptor in a HEK-293, CHO or U-2 OS cell background, or purchased from a commercial source (Perkin Elmer, Shelton, Conn.; or DiscovRx, Fremont, Calif.). Assay reactions were prepared by sequentially adding the following reagents to binding buffer (100 mM NaCl, 10 mM MgCl2, 20 mM HEPES, pH 7.4) on ice (final concentrations indicated): membrane protein (0.026 mg/mL), saponin ([…]), GDP ([…]) and [^35S]GTPγS (0.20 nM; Perkin Elmer, Shelton, Conn.). The prepared membrane solution (190 μl/well) was transferred to 96-shallow well polypropylene plates containing 10 μl of 20× concentrated stock solutions of the agonist [D-Ala^2, N-methyl-Phe^4 Gly-ol^5]-enkephalin (DAMGO) prepared in dimethyl sulfoxide (DMSO). Plates were incubated for 30 min at about 25° C. with shaking. […] BetaScint scintillation cocktail (Perkin Elmer, Shelton, Conn.) was added (50 μl/well) and plates were counted using a Packard Top-Count for 1 min/well. Data were analyzed using the sigmoidal dose-response curve fitting functions in GraphPad PRISM v. […]
(§2) TABLE 3 provides activity response of certain Compounds of the present disclosure to the μ- and κ-opioid receptors that was determined in the above-described functional assays using HEK-293 or CHO cells.

[5] = target: T2, κ-opioid receptor (Homo sapiens, UniProt P41145); assay: [35S]GTPγS functional assay, κ-opioid receptor (HEK-293 or CHO cells); format: biochemical; set-up: made in house; host or cells: HEK-293 or CHO
T2 sequence (P41145 whole entry): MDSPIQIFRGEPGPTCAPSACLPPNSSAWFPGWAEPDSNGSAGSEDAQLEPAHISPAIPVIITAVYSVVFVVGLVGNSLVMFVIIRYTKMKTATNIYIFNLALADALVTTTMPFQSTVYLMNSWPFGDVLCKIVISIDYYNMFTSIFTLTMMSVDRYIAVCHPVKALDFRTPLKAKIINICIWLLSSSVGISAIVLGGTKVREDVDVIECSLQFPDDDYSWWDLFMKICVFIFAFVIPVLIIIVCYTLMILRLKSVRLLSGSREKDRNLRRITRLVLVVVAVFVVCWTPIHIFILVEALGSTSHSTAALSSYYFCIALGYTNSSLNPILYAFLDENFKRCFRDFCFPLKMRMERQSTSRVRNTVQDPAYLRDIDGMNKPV
Experimental: Membranes from HEK-293 cells, CHO or U-2 OS cells expressing the recombinant human kappa opioid receptor (κ) were prepared by lysing cells in ice cold hypotonic buffer (2.5 mM MgCl2, 50 mM HEPES, pH 7.4) (10 mL/10 cm dish) followed by homogenization with a tissue grinder/Teflon pestle. Membranes were collected by centrifugation at 30,000×g for 15 min at 4° C. and pellets were resuspended in hypotonic buffer to a final concentration of 1-3 mg/mL. Protein concentrations were determined using the BioRad protein assay reagent with bovine serum albumen as standard. Aliquots of κ receptor membranes were stored at −80° C.
Functional [^35S]GTPγS binding assays were conducted as follows. κ opioid receptor membrane solution was prepared by sequentially adding final concentrations of 0.026 μg/μl κ membrane protein (in-house), 10 μg/mL saponin, 3 μM GDP and 0.20 nM [^35S]GTPγS to binding buffer (100 mM NaCl, 10 mM MgCl2, 20 mM HEPES, pH 7.4) on ice. […] Fifty μl/well scintillation cocktail (Perkin Elmer, Shelton, Conn.) was added and plates were counted in a Packard Top-Count for 1 min/well.
as §2

[6] = target: T2, κ-opioid receptor; assay: β-Arr2 activity response in U2OS cells, κ-opioid receptor; format: cell-based; set-up: expressed in transfected cells; host or cells: U2OS (U-2 OS)
Experimental: as §1

T1 sequence (P35372 whole entry, species assumed): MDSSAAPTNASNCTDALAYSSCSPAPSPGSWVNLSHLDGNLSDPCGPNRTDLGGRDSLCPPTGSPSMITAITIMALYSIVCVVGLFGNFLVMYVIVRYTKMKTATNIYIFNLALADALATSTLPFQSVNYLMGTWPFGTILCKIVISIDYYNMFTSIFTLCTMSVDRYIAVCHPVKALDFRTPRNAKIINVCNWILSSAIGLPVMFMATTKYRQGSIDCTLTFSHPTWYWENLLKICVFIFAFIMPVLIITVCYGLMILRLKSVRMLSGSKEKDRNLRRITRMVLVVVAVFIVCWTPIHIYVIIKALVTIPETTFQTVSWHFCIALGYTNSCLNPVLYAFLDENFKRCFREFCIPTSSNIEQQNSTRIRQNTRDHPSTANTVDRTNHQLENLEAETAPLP

SMILES	EC50 [1]	Emax ([1]; U2OS cells)	appearance of animals (sedation) in hot plate study ([2]; 30-75 mg/kg po)	Conditioned Place Preference compared to the vehicle group [3]	EC50 [4]	Emax ([4]; HEK-293 or CHO cells, relative to DAMGO, read-out: GTPγD μ Emax)	EC50 [5]	Emax ([5]; HEK-293 or CHO cells, relative to U69,593, read-out: GTPγD κ Emax)	EC50 [6]	Emax ([6]; U2OS cells)	appearance of animals (sedation) in hot plate study ([2]; sc, positive control)
CN1CC[C@]23CCCC[C@@]2(O)[C@H]1Cc1ccc(C(N)=O)cc13 [Compound 1, (4bS,8aS,9R)-8a-hydroxy-11-methyl-6,7,8,8a,9,10-hexahydro-5H-9,4b-(epiminoethano)phenanthrene-3-carboxamide]	36.7 ± 5.4 nM	8.58 ± 0.3%	appeared to be sedate	not statistically significant	44.2 ± 11.9 nM	50.5 ± 0.95%	620 ± 91.1 nM	14.9 ± 0.63%	> 20000 nM	-0.83 ± 0.17%	
CN1CC[C@]23c4c5ccc(O)c4O[C@H]2[C@@H](O)C=C[C@H]3[C@H]1C5 [morphine, reference compound]											appeared to be sedate
